{"source": "patent US9675591B2", "about": "“Methods for treating seizure disorders and pain” (THE REGENTS OF THE UNIVERSITY OF CALIFORNIA, priority 2013, dated 2017)", "key": {"[1]": {"tested_on": "6-Hz psychomotor seizures", "assay": "6-Hz psychomotor seizure test (ASP)", "format": "in vivo, mice", "conditions": "for ED50: Mus musculus, ip, mice", "description": "Seizures characterized by a minimal clonic phase followed by stereotyped automatistic behaviors (jaw chomping and whisker movement) were induced in mice by a low frequency (6 Hz), long-duration (3 s) stimulus. These seizures resemble automatistic behavior in patients with complex partial seizures. At varying times (0.25, 0.5, 1, 2, and 4 h) after drug treatment, individual mice (four at each time point) were challenged with sufficient current (32 or 44 mA at 6 Hz for 3 s) delivered through corneal electrodes to elicit a psychomotor seizure. Animals not displaying this behavior are considered protected."}, "MES-induced seizures": {"tested_on": "MES-induced seizures", "assay": "Maximal electroshock (MES) seizure test, mice (ASP, methylcellulose suspension)", "format": "in vivo", "description": "SKA-19 was tested under the auspices of the National Institutes of Health's Anticonvulsant Screening Program (ASP). Experiments were performed in male albino CF (Carworth Farms) No. 1 mice or Sprague-Dawley rats according to the established protocols of the ASP (White et al., 2002). SKA-19 was suspended in 0.5% methylcellulose and administered in a volume that permits accuracy of dosage without excessively contributing to total body fluid (0.01 ml/g body weight for mice and 0.04 ml/10 g body weight for rats).\nAnimals received an electrical stimulus of 0.2 s duration (50 mA in mice and 150 mA in rat at 60 Hz) delivered via corneal electrodes primed with an electrolyte solution containing 0.5% tetracaine. Animals were restrained by hand and released immediately after stimulation to permit observation of the seizure throughout its entire course. In the initial screens to identify anticonvulsant activity mice were tested at 30 minutes and 4 hours following doses of 3, 10, 30, 100 and 300 mg/kg of SKA-19 and rats tested at time intervals between 0.25 and 4 hours following a standard oral dose of 30 mg/kg. In the subsequent, more quantitative tests at least four doses of SKA-19 (n=8 per dose) were tested at the previously determined time of peak effect (TPE). Abolition of hindlimb tonic extension indicates the test compound's ability to inhibit MES-induced seizure spread. Tonic extension is considered abolished if the hind limbs are not fully extended at 180° with the body."}, "Nav1.1": {"biological_target": "Nav1.1 (Homo sapiens (Human), UniProt P35498)", "assay": "Voltage-clamp, Nav1.1 in HEK-293 cells", "format": "cell-based", "conditions": "holding potential -90 mV, 0.1 Hz; read-out: EC50 or IC50, Nav1.1", "description": "All experiments were conducted at room temperature (22-24° C.) with an EPC-10 amplifier and Pulse software (HEKA, Lambrecht/Pfalz, Germany) in the whole-cell mode of the patch-clamp technique. Human embryonic kidney (HEK)-293 cell lines stably expressing hNav1.1, hNav1.5, hNav1.7 channels (generously provided by Dr. Christopher Lossin, University of California Davis), hNav1.4 (Frank Lehmann-Horn, University of Ulm), or hKv2.1 channels (James Trimmer, University of California Davis) were bathed in extracellular solution containing (in mM): 160 NaCl; 4.5 KCl; 1 MgCl2; 2 CaCl2; 10 HEPES [pH was adjusted to 7.4 using NaOH (310 mOsm)]. Pipettes were filled with intracellular solution containing (in mM): 145 KF; 2 MgCl2; 10 ethylene glycol tetraacetic acid; 10 HEPES (pH adjusted to 7.2 with KOH; 300 mOsm). Neuroblastoma N1E-115 cells (ATCC, Manassa, Va., USA) expressing Nav1.2 were patched with a CsF internal solution consisting of (in mM): 10 NaF; 110 CsF; 20 CsCl; 2 ethylene glycol tetraacetic acid; 10 HEPES (CsOH to pH 7.35; 300 mOsm). All pipette tip resistances were 2-4 MΩ. Series resistances of 3-10 MΩ were compensated 40-80%. All cells were voltage-clamped to a holding potential of −90 mV unless otherwise specified. The sampling frequency was 5 kHz. Na^+ currents were elicited by 30-ms pulse to 0 mV from −90 mV applied every 10 s. […]"}, "[2]": {"tested_on": "pentylenetetrazole-induced seizures", "assay": "Subcutaneous Metrazol seizure test (scMET)", "format": "in vivo", "description": "A dose of subcutaneous pentylenetetrazole (Metrazole, MET) which induces convulsions in 97% of animals (CD97: 85 mg/kg mice or 56.4 mg/kg rats) was injected into a loose fold of skin at the neck. Animals were placed in isolation cages and observed for 30 min for the occurrence of clonic spasms persisting for at least 5 s."}, "sound-induced seizures": {"tested_on": "sound-induced seizures", "assay": "Frings audiogenic seizure (AGS)-susceptible mouse model", "format": "in vivo, mice", "conditions": "ip, 2 h, read-out: ED50, protection from sound induced seizures", "description": "Frings audiogenic seizure (AGS)-susceptible mice are genetically susceptible to sound-induced seizures (Frings et al., 1953). A colony of AGS mice is maintained by the ASP at the University of Utah. Groups of 8 female mice (weighing 18-25 g) were treated i.p. with increasing doses of SKA-19. At the TPE in the MES test, mice were exposed to a sound stimulus of 110 decibels (11 KHz) delivered for 20 s."}, "KCa2.3 (SK3)": {"biological_target": "KCa2.3 (SK3) (Homo sapiens (Human), UniProt Q9UGI6)", "assay": "Whole-cell patch-clamp, KCa2.3", "format": "cell-based", "conditions": "250 nM free intracellular Ca2+; read-out: EC50 or IC50, KCa2.3", "description": "HEK-293 or COS-7 cells stably expressing hKCa2.1, rKCa2.2, and hKCa2.3 have been described previously (Sankaranarayanan et al., 2009). Cells were held at −80 mV and KCa currents elicited by dialysis with a K^+ aspartate based internal containing 250 nM free Ca^2+ (pH 7.2, 290 mOsm, pipette resistance 1.5 MΩ). To reduce currents from native chloride channels, Na^+ aspartate Ringer was used as an external solution. KCa2 currents were recorded with 200-ms voltage ramps from −120 to +40 mV applied every 10 s, and the fold increase of slope conductance at −80 mV by drug was taken as a measure of channel activation. Data analysis, fitting, and plotting were performed with IGOR-Pro (Wavemetrics, Lake Oswego, Oreg., USA) and Origin 9.0 (OriginLab, Northampton, Mass., USA)."}, "[3]": {"conditions": "ASP anticonvulsant testing, suspension in 0.5% methylcellulose"}}, "data": [{"smiles": "Nc1nc2ccc(SC(F)(F)F)cc2s1", "note": "[SKA-19, 6-((trifluoromethyl)thio)benzo[d]thiazol-2-amine]", "values": [{"measurement": "protection in 6-Hz test, initial screen", "setting": "[1]; 10 mg/kg i.p., all other tested time points", "value": "partial protection"}, {"measurement": "protection in 6-Hz test, initial screen", "setting": "[1]; 2 hours after i.p. 10 mg/kg", "value": "full protection (4 out of 4 animals)"}, {"measurement": "ED50", "setting": "[1]; 2 h, 32 mA", "value": 12.2, "unit": "mg/kg"}, {"measurement": "ED50", "setting": "[1]; current intensity 44 mA", "value": 28.1, "unit": "mg/kg"}, {"measurement": "duration of activity", "setting": "MES-induced seizures; [3]", "value": 4, "unit": "h"}, {"measurement": "time of peak activity / maximal effect", "setting": "MES-induced seizures; [3]", "value": "1 to 2", "unit": "h"}, {"measurement": "ED50", "setting": "MES-induced seizures; Mus musculus, ip, mice, i.p., methylcellulose suspension, time of peak effect (SKA-19: 2 h), read-out: ED50, seizure protection in the MES test", "value": 4.8, "unit": "mg/kg"}, {"measurement": "protection in the MES model, initial screen", "setting": "MES-induced seizures; mice, i.p., 3 mg/kg", "value": "partial protection"}, {"measurement": "protection in the MES model, initial screen", "setting": "MES-induced seizures; mice, i.p., 10, 30 and 100 mg/kg", "value": "fully protected"}, {"measurement": "protective index PI (TD50/ED50)", "setting": "MES-induced seizures; mice, i.p., suspension", "value": 6.2}, {"measurement": "IC50", "setting": "Nav1.1", "value": "6.9 ± 4.9", "unit": "µM"}, {"measurement": "death in the scMET test", "setting": "[2]; 300 mg/kg", "value": "one animal treated with 300 mg/kg died"}, {"measurement": "protection in the scMET test", "setting": "[2]; 30 and 100 mg/kg", "value": "did not provide any protection"}, {"measurement": "activity in the scMET test", "setting": "[2]; mouse, in vivo", "value": "no significant activity"}, {"measurement": "ED50", "setting": "sound-induced seizures", "value": 2.15, "unit": "mg/kg"}, {"measurement": "EC50", "setting": "KCa2.3 (SK3)", "value": 15, "unit": "µM"}]}]}
